Measured values: patent publication US20090221829A1 (priority 2005, published 2009)

Test system: Candida albicans(KCTC 1940), Aspergillus niger (ATCC 9642) and Saccharomyces cerevisiae
Assay: Relative antifungal activity by agar dilution method (vs Miconazole);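 further: scores 5 to 7 mean a lower fungicidal concentration than Miconazole so higher is more potent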
Type: cell-based
Settings: agar dilution method; fungicidal concentration relative to control drug Miconazole (=4)
From the text: Novel compounds represented by the above chemical formula (I), and the relative activities in accordance with the agar dilution method in Sabouraud dextrose agar media, Czapek agar media and Yeast Extract-Peptone-Dextrose agar media for Candida albicans(KCTC 1940), Aspergillus niger (ATCC 9642) and Saccharomyces cerevisiae are described respectively in following Table 1.

SMILES	Relative Activity
COc1cc2c(cc1OC)C(c1cccc(F)c1F)=[N+](Cc1ccccc1F)CC2.[Cl-] [Compound No. 15, 1-(2,3-difluorophenyl)-2-(2-fluorophenyl)methyl-3,4-dihydro-6,7-dimethoxyisoquinolinium chloride]	6
COc1cc2c(cc1OC)C(C)=[N+](Cc1ccccc1[N+](=O)[O-])CC2.[Cl-] [Compound No. 71, 1-methyl-2-(2-nitrophenyl)methyl-3,4-dihydro-6,7-dimethoxyisoquinolinium chloride]	6
CCCCCC1=[N+](Cc2c(F)cccc2Cl)CCc2cc(OC)c(OC)cc21.[Cl-] [Compound No. 66, 1-n-pentyl-2-(2-chloro-6-fluorophenyl)methyl-3,4-dihydro-6,7-dimethoxyisoquinolinium chloride]	5
CCCCCCCC1=[N+](Cc2ccc(O)c([N+](=O)[O-])c2)CCc2cc(OC)c(OC)cc21.[Cl-] [Compound No. 76, 1-n-heptyl-2-(4-hydroxy-3-nitrophenyl)methyl-3,4-dihydro-6,7-dimethoxyisoquinolinium chloride]	4
COc1ccc2c(c1)CC[N+](Cc1ccccc1F)=C2C.[Cl-] [Compound No. 80, 1-methyl-2-(2-fluorophenyl)methyl-3,4-dihydro-6-methoxyisoquinolinium chloride]	6
CC(C)(C)c1ccc(C2=[N+](Cc3ccc(C(F)(F)F)cc3)CCc3cc4c(cc32)OCO4)cc1.[Cl-] [Compound No. 110, 1-(4-t-butylphenyl)-2-(4-trifluoromethylphenyl)methyl-3,4-dihydro-6,7-methylenedioxyisoquinolinium chloride]	6
CCCCCCCCCCCCCCCC1=[N+](Cc2ccc(C(F)(F)F)cc2)CCc2cc(OC)c(OC)cc21.[Cl-] [Compound No. 30, 1-n-pentadecyl-2-(4-trifluoromethylphenyl)methyl-3,4-dihydro-6,7-dimethoxyisoquinolinium chloride]	1
COc1cc2c(cc1OC)C(CC(C)C)=[N+](Cc1ccccc1F)CC2.[Cl-] [Compound No. 8, 1-(2-methyl)propyl-2-(2-fluorophenyl)methyl-3,4-dihydro-6,7-dimethoxyisoquinolinium chloride]	5
COc1cc2c(cc1OC)C(C)=[N+](Cc1c(F)cccc1Cl)CC2.[Cl-] [Compound No. 64, 1-methyl-2-(2-chloro-6-fluorophenyl)methyl-3,4-dihydro-6,7-dimethoxyisoquinolinium chloride]	6
CCCCCCCC1=[N+](Cc2ccccc2F)CCc2cc(OC)ccc21.[Cl-] [Compound No. 87, 1-n-heptyl-2-(2-fluorophenyl)methyl-3,4-dihydro-6-methoxyisoquinolinium chloride]	5
COc1ccc(C[N+]2=C(C)c3cc(OC)c(OC)cc3CC2)cc1.[Cl-] [Compound No. 33, 1-methyl-2-(4-methoxyphenyl)methyl-3,4-dihydro-6,7-dimethoxyisoquinolinium chloride]	6
CCC1=[N+](Cc2ccccc2F)CCc2cc(OC)c(OC)cc21.[Cl-] [Compound No. 4, 1-ethyl-2-(2-fluorophenyl)methyl-3,4-dihydro-6,7-dimethoxy-isoquinolinium chloride]	6
CCCCCCCCCCCC1=[N+](Cc2ccccc2Cl)CCc2cc(OC)c(OC)cc21.[Cl-] [Compound No. 53, 1-n-undecyl-2-(2-chlorophenyl)methyl-3,4-dihydro-6,7-dimethoxyisoquinolinium chloride]	2
CCCCCCCC1=[N+](Cc2cc(Br)c(OC)c(OC)c2)CCc2cc(OC)c(OC)cc21.[Cl-] [Compound No. 79, 1-n-heptyl-2-(3-bromo-4,5-dimethoxyphenyl)methyl-3,4-dihydro-6,7-dimethoxyisoquinolinium chloride]	5
CC(C)(C)c1ccc(C2=[N+](Cc3ccc(F)c(F)c3)CCc3cc4c(cc32)OCO4)cc1.[Cl-] [Compound No. 114, 1-(4′-t-butylphenyl)-2-(3,4-difluorophenyl)methyl-3,4-dihydro-6,7-methylenedioxyisoquinolinium chloride]	6
CCCCCCCCCCCC1=[N+](c2ccc(C(F)(F)F)cc2)CCc2cc(CNC(=O)OCC)ccc21.[Br-] [Compound No. 117, Ethyl 3,4-dihydro-1-undecylisoquinolinium-2-(4-trifluoromethylphenyl)-6-ylmethylcabamate bromide]	4
COc1cc2c(cc1OC)C(c1ccc(F)c(F)c1)=[N+](Cc1ccccc1F)CC2.[Cl-] [Compound No. 17, 1-(3,4-difluorophenyl)-2-(2-fluorophenyl)methyl-3,4-dihydro-6,7-dimethoxyisoquinolinium chloride]	6

SMILES	Relative Activity
COc1cc2c(cc1OC)C(c1ccccc1F)=[N+](Cc1ccc(F)c(F)c1)CC2.[Cl-] [Compound No. 47, 1-(2-fluorophenyl)-2-(3,4-difluorophenyl)methyl-3,4-dihydro-6,7-dimethoxyisoquinolinium chloride]	6
CCCCCCCCCCCCCCCC1=[N+](Cc2ccccc2F)CCc2cc(OC)c(OC)cc21.[Cl-] [Compound No. 13, 1-n-pentadecyl-2-(2-fluorophenyl)methyl-3,4-dihydro-6,7-dimethoxyisoquinolinium chloride]	2
COc1cc2c(cc1OC)C(C)=[N+](Cc1c(F)cccc1F)CC2.[Cl-] [Compound No. 56, 1-methyl-2-(2,6-difluorophenyl)methyl-3,4-dihydro-6,7-dimethoxyisoquinolinium chloride]	6
CCCCCCCC1=[N+](Cc2ccc(OC)cc2)CCc2cc(OC)c(OC)cc21.[Cl-] [Compound No. 36, 1-n-heptyl-2-(4-methoxyphenyl)methyl-3,4-dihydro-6,7-dimethoxyisoquinolinium chloride]	3
COc1cc2c(cc1OC)C(CCc1ccc(C(C)(C)C)cc1)=[N+](Cc1cccc(OC)c1OCc1c(F)cccc1Cl)CC2 [Compound No. 133, 1-(2-(4-t-butylphenyl))ethyl-2-(2-(2-chloro-6-fluorobenzyloxy)-3-methoxyphenyl)methyl-3,4-dihydro-6,7-dimethoxyisoquinolinium chloride]	1
COc1cc2c(cc1OC)C(c1cccc(C(F)(F)F)c1)=[N+](Cc1ccccc1F)CC2.[Cl-] [Compound No. 23, 1-(3-trifluoromethylphenyl)-2-(2-fluorophenyl) methyl-3,4-dihydro-6,7-dimethoxyisoquinolinium chloride]	6
COc1cc2c(cc1OC)C(c1cccc(Cl)c1)=[N+](Cc1ccccc1F)CC2.[Cl-] [Compound No. 19, 1-(3-chlorophenyl)-2-(2-fluorophenyl)methyl-3,4-dihydro-6,7-dimethoxyisoquinolinium chloride]	6
COc1cc2c(cc1OC)C(c1ccc(C(C)(C)C)cc1)=[N+](Cc1c(F)cccc1Cl)CC2.[Cl-] [Compound No. 70, 1-(4-t-butylphenyl)-2-(2-chloro-6-fluorophenyl)methyl-3,4-dihydro-6,7-dimethoxyisoquinolinium chloride]	6
CCCCCCCCCCCC1=[N+](Cc2ccc(C(F)(F)F)cc2)CCc2cc(OC)c(OC)cc21.[Cl-] [Compound No. 29, 1-n-undecyl-2-(4-trifluoromethylphenyl)methyl-3,4-dihydro-6,7-dimethoxyisoquinolinium chloride]	1
CCCCCCC1=[N+](Cc2ccccc2F)CCc2cc(OC)c(OC)cc21.[Cl-] [Compound No. 10, 1-n-hexyl-2-(2-fluorophenyl)methyl-3,4-dihydro-6,7-dimethoxyisoquinolinium chloride]	4
COc1cc2c(cc1OC)C(c1ccc(F)cc1F)=[N+](Cc1ccccc1F)CC2.[Cl-] [Compound No. 16, 1-(2,4-difluorophenyl)-2-(2-fluorophenyl)methyl-3,4-dihydro-6,7-dimethoxyisoquinolinium chloride]	6
CC1=[N+](Cc2ccc(C(F)(F)F)cc2)CCc2cc3c(cc21)OCO3.[Cl-] [Compound No. 107, 1-methyl-2-(4-trifluoromethylphenyl)methyl-3,4-dihydro-6,7-methylenedioxyisoquinolinium chloride]	6
COc1ccc(C[N+]2=C(CCc3ccc(C(C)(C)C)cc3)c3cc(OC)c(OC)cc3CC2)cc1OC [Compound No. 125, 1-(2-(4-t-butylphenyl))ethyl-2-(3,4-dimethoxyphenyl)methyl-3,4-dihydro-6,7-dimethoxyisoquinolinium chloride]	2
CCCCCCCC1=[N+](Cc2ccc(F)c(F)c2)CCc2cc(OC)c(OC)cc21.[Cl-] [Compound No. 43, 1-n-heptyl-2-(3,4-difluorophenyl)methyl-3,4-dihydro-6,7-dimethoxyisoquinolinium chloride]	3
COc1cc2c(cc1OC)C(c1ccc(C(C)(C)C)cc1)=[N+](Cc1c(F)cccc1F)CC2.[Cl-] [Compound No. 63, 1-(4-t-butylphenyl)-2-(2,6-difluorophenyl)methyl-3,4-dihydro-6,7-dimethoxyisoquinolinium chloride]	6
COc1ccc2c(c1)CC[N+](Cc1ccccc1F)=C2c1ccc(C(C)(C)C)cc1.[Cl-] [Compound No. 91, 1-(4-t-butylphenyl)-2-(2-fluorophenyl)methyl-3,4-dihydro-6-methoxyisoquinolinium chloride]	6

Same assay, conditions: antifungal activity relative to Miconazole, agar dilution

SMILES	Relative Activity
COc1cc2cc[n+](Cc3c(F)cccc3Cl)cc2cc1OC.[Cl-] [Compound No. 141, 2-(2-chloro-6-fluorophenyl)methyl-6,7-dimethoxyisoquinolinium chloride]	6
